Test results from publication PMC6006164, “Natural cyclopeptide RA-V inhibits the NF-κB signaling pathway by targeting TAK1” (Cell Death & Disease, 2018).

Columns and labels:
TAK1–TAB2 interaction [1] = target: T1, TAK1–TAB2 interaction (Homo sapiens, UniProt O43318); experiment: Co-immunoprecipitation of TAK1 and TAB2; type: cell-based; conditions: HEK293T, Flag-TAK1 and HA-TAB2; RA-V 6 h
T1 construct: expressed in transfected cells; host or cells: HEK293T
T1 sequence (O43318 1-579 isoform O43318-2): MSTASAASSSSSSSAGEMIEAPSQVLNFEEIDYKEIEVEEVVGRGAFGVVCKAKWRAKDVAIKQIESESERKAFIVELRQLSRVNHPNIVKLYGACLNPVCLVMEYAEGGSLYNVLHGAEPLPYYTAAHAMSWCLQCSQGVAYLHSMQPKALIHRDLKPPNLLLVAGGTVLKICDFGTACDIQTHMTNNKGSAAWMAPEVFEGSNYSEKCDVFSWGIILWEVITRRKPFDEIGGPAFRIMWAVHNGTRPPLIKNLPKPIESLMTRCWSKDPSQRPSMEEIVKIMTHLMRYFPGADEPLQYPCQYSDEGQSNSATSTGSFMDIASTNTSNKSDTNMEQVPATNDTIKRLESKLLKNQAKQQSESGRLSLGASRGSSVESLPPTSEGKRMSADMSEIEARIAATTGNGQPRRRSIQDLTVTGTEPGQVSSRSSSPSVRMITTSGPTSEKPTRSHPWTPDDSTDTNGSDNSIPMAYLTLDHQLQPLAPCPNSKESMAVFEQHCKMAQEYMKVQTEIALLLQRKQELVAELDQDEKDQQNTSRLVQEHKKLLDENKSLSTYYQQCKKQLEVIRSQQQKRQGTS
Method: (§1) Fig. 4 RA-V blocks the interaction between TAK1 and TAB2. a RA-V blocked the exogenous TAK1–TAB2 interaction. HEK293T cells were transfected with Flag-TAK1 and HA-TAB2 for 24 h and then incubated with various concentrations of RA-V for 6 h. […] HEK293T cells were transfected with Flag-TAK1 and HA-TRAF6 or HA-TAB1 for 24 h and then incubated with RA-V (800 nM) for 6 h. The cell lysates were immunoprecipitated with HA antibody, and immunoblots were performed with the indicated antibodies. d RA-V blocked the endogenous TAK1–TAB2 interaction. HEK293T (left) or RAW264.7 (right) cells were incubated with 800 nM RA-V for 6 h and stimulated with 10 ng/mL TNF-α for 2 h or 1 μg/mL LPS for 3 h, respectively. The cell lysates were immunoprecipitated with TAK1 antibody or control IgG and then immunoblotted with the indicated antibodies. Each experiment was repeated at least three times
(§2) The cell lysates were prepared using radioimmunoprecipitation (RIPA) buffer containing 50 mM Tris-HCl pH 7.4, 150 mM NaCl, 1 mM ethylenediaminetetraacetic acid, 1% Triton X-100, 0.5% deoxycholate, and 0.1% sodium dodecyl sulfate, to which protease inhibitors (Roche) were added. The lysates were incubated with the indicated antibodies before adding 20 μL of Protein A/G agarose for 2 h. After four washes with the same buffer, the immunoprecipitates were boiled in 2 × SDS loading buffer.

TAK1–TAB2 interaction [2] = experiment: Co-immunoprecipitation of TAK1 and TAB2; type: cell-based; conditions: HEK293T or RAW264.7; 800 nM RA-V 6 h
Method: as §1, §2

[3] = Toxicity assessment in xenograft-bearing mice; type: in vivo, female athymic nude BALB/c mice
From the text: Fig. 8 Analysis of potential side effects for treatment of RA-V. a–b The change curves of body weights of BALB/c bearing HCT116 (a) or HepG2 (b) xenograft tumors (n = 8 or 7). c Representative hematoxylin–eosin staining of heart, kidney, spleen, lung, and liver from vehicle- and various concentrations of RA-V-treated group. d The evaluation of serum ALT, AST, and creatine kinase for vehicle- and various concentrations of the RA-V-treated group
In total, 2 × 10^6 HCT116 or 3 × 10^6 HepG2 cells were subcutaneously injected into the right dorsal flank of 6- to 8-week-old female athymic nude BALB/c mice. After tumor volumes reached 100 mm^3, the tumor-bearing mice were randomly divided into several groups. The mice bearing HCT116 (n = 8) or HepG2 xenograft tumors (n = 7) were received the intravenous injection of vehicle micelles or various concentrations of RA-V micelles every other day. 5-FU (10 mg/kg) group as positive control. Body weights and tumor volumes were recorded every other day. Tumor volumes were calculated using the following formula: tumor volume (mm^3) = 0.52 × length × width^2. At the end of the experiments, the mice were killed. Tumor xenografts of each mouse were removed and weighed. Part of each tumor tissue was stored at liquid nitrogen for quantitative RT-PCR analysis. Organs (heart, kidney, spleen, lung, and liver) from killed mice were also removed, fixed in the 4% formaldehyde solution for microscopic examination by hematoxylin–eosin staining. Serum alanine transaminase(ALT), aspartate transaminase(AST), and creatine kinase(CK) were determined using relevant kits (Nanjing Jiancheng) according to the manufacturer’s specific instructions.

RA-V
interaction between exogenously expressed TAK1 and TAB2 (TAK1–TAB2 interaction [1]): dose-dependently blocked
endogenous TNF-α- or LPS-induced TAK1–TAB2 interaction (TAK1–TAB2 interaction [2]): inhibited the interaction
body weight ([3]; HCT116 or HepG2 xenograft mice, measured every other day, vs control): no obvious changes
toxic pathological changes in heart, kidney, spleen, lung and liver ([3]; hematoxylin–eosin staining, vs control): no obvious toxic pathological changes
levels of serum ALT, AST and creatine kinase ([3]; liver and heart toxicity, vs vehicle): no significant changes
